From patent publication US6964959B2, “Use of a methylol-containing compound to treat tumors” (Carter Wallace, Inc., priority 1999, dated 2005)
Entries after “also recorded” stand apart in the source; their conditions may differ.

What was measured:
NIH-3T3 = assay: Flow cytometry cell cycle distribution / DNA debris, NIH-3T3; type: cell-based, murine
Experimental: (§1) Three×10^5 cells were seeded in plastic tissue culture flasks. […] Control cultures received an appropriate volume of Kollidine-17P. […] The percentage of DNA debris in the sub-G0/G1 region was assessed using cytofluorometric techniques. Each bar represents the mean (±SE) of three determinations. **p≦0.01, ***p≦0.001, ****p≦0.0001
For flow cytometry studies, 1×10^6 PA-1, SKOV-3, or NIH-3T3 cells were incubated for 24 h in appropriate media containing serum. […] Control cultures for each cell line were incubated in media containing 40 μl of 5% Kollidon 17PF alone. […] For example, harvested cells were resuspended in ice cold phosphate-buffered saline at a final cell density of 2×10^6 cells/ml. The cells then were stained for 30 min at room temperature in the dark with a solution of 0.05 mg/ml propidium iodide, 0.6% Igepal, and 1% sodium citrate. Flow cytometry was performed by FACScan (Becton Dickinson, Plymouth, England) using the ModFit LT program (Becton Dickinson). Statistical analysis was performed with the Kruskal Wallis non-parametric ANOVA test followed by Dunn's multiple comparisons test using Instat.
Three×10^5 cells were seeded in plastic tissue culture flasks. […] Control cultures received an appropriate volume of Kollidine-17P. After an additional 48 h, cells were harvested, stained with propidium iodide, and cell cycle distribution assessed using cytofluorometric techniques. Each value represents the percentage of cells in the noted cell cycle phases and is the mean±SEM of three determinations.

SKOV-3 = assay: Flow cytometry cell cycle distribution / DNA debris, SKOV-3; type: cell-based, human; conditions: 48 h exposure
Experimental: as §1
For flow cytometry studies, 1×10^6 PA-1, SKOV-3, or NIH-3T3 cells were incubated for 24 h in appropriate media containing serum. […] Control cultures for each cell line were incubated in media containing 40 μl of 5% Kollidon 17PF alone. Forty-eight hours later, all cells were harvested by trypsinization and prepared for cytofluorometric analysis by standard methods. For example, harvested cells were resuspended in ice cold phosphate-buffered saline at a final cell density of 2×10^6 cells/ml. The cells then were stained for 30 min at room temperature in the dark with a solution of 0.05 mg/ml propidium iodide, 0.6% Igepal, and 1% sodium citrate. Flow cytometry was performed by FACScan (Becton Dickinson, Plymouth, England) using the ModFit LT program (Becton Dickinson). […]
Three×10^5 cells were seeded in plastic tissue culture flasks. […] After an additional 48 h, cells were harvested, stained with propidium iodide, and cell cycle distribution assessed using cytofluorometric techniques. […]

PA-1 = assay: Annexin-V FITC binding (phosphotidylserine externalization), PA-1; type: cell-based, human; conditions: 24 h exposure
Experimental: Three×10^5 cells were seeded in plastic tissue culture flasks. […] Control cultures received an appropriate volume of Kollidine-17P. After an additional 24 h, cells were harvested and phosphotidylserine externalization determined by assessing Annexin-V FITC binding using cytofluorometric techniques. Each bar represents the mean±SE of four determinations. **p≦0.01, ***p≦0.001
Cell membrane phosphotidylserine externalization, as a reflection of the potential induction of apoptosis, was assessed by flow cytometry methods using the ApoAlert® Annexin-V/FITC assay kit. Briefly, 1×10^6 cells were incubated for 24 h in tissue culture medium containing serum. […] Control cultures received 5% Kollidon 17PF alone. Twenty-four hours later, all cells were harvested by trypsinization. The harvested cells were resuspended in 200 μl of binding buffer and then incubated for 5-15 min in a solution containing 1 μg/ml Annexin-V FITC at room temperature in the dark. The cells were then analyzed to quantitate Annexin-V binding by cytofluorometric techniques that utilized FACScan using the ModFit LT program with statistical analysis as described above.

PARP = assay: Western-blot analysis of PARP cleavage, SKOV-3 cells; type: cell-based, human; conditions: 24 h exposure to 50 or 100 μM
Experimental: Two×10^6 cells were seeded in 150 cm^2 tissue culture flasks. […] After an additional twenty-four hours, cells were harvested, cell number determined, and aliquots derived from equal cell numbers generated from each exposure condition. Total proteins from these whole cell lysates were separated by SDS-PAGE and transferred to nitrocellulose filters. Filters were then immunoblotted to detect intact PARP protein and cleavage fragments by using the clone C-2-10 mouse monoclonal anti-PARP antibody (Zymed Laboratories, San Francisco, Calif.). The resulting protein-antibody complexes were visualized by chemiluminescence techniques.
Western-blot analysis was used to assess of PARP cleavage. Two×10^6 cells were seeded into separate 75 cm^2 tissue culture flasks containing 20 ml of tissue culture media plus serum. […] Twenty-four hours after the addition of Taurolidine, cells were harvested, cell number determined, and aliquots containing an equal cell number were generated from each exposure condition. Total proteins from whole cell lysates generated from these aliquots were separated by SDS-PAGE and electrotransferred to nitrocellulose filters. Filters were then processed to detect intact PARP protein and cleavage fragments by using the clone C-2-10 mouse monoclonal anti-PARP antibody (Zymed Laboratories, San Francisco, Calif.). […]

[1] = Taurolidine-induced toxicity in athymic (nude) female mice; type: in vivo; conditions: for mortality (%): i.p., three consecutive days, nude female mice
Experimental: Control animals received 1 ml injections of 5% Kollidon 17PF alone. Animals were examined daily and body weight recorded twice weekly. A reduction in body weight of greater than 10% was considered significant. The maximally tolerated dose (MTD) was considered to be the dose which produced ˜10% mortality.
During the injection regimen, and daily thereafter for 30 d, mice were weighed and examined. Experiments were repeated a minimum of three times and mortality and weight loss data pooled.

[2] = system: human ovarian tumor cells; assay: Growth of established human ovarian tumor cell colonies; type: cell-based; conditions: 24-hour exposure to 50 μM; discrete colonies
Experimental: Parallel studies were carried out to assess whether disruption of cell adhesion played a role in the cytotoxic activity.

3T3 cells = assay: DNA fragmentation, normal 3T3 cells; type: cell-based
Description: This DNA fragmentation was not observed in normal 3T3 cells.

[3] = system: HL-60 human promyelocytic cell line; assay: Apoptosis induction in HL-60 cells; type: cell-based; conditions: non-adherent cancer cell models
[4] = system: Bcl2-over expressing HL-60 cells; assay: Apoptosis induction in Bcl2-over expressing HL-60 cells; type: cell-based, human
Description: Human leukemia HL-60 cells, which were genetically-engineered to resist apoptotic induction, were induced to apoptosis independently (downstream) of the bcl-2/bax (anti-death gene) point in the signal transduction cascade.

[5] = system: MDR-transfected glioblastoma cells; assay: Cytotoxicity in MDR-transfected glioblastoma cells; conditions: dose of 50 μM
Description: The neoplastic cell lines used in the survey were standard tumor cell lines, e.g., PA1 human ovarian cell line, SKOV3 human ovarian cell line, HT29 human colon tumor cell line, DU145 human prostate tumor cell line, U251 human glioblastoma cell line, U251-MDR human glioblastoma cell line transfected with DNA encoding MDR, T98G human glioblastoma cell line, SP-1 human leukemia cell line, and Daudi human leukemia cell line.
Glioblastoma cells were transfected with a gene encoding multiple drug resistance (MDR).

Structure (SMILES): O=S1(=O)CCN(CN2CCS(=O)(=O)NC2)CN1 [Taurolidine, Bis-(1,1-dioxoperhydro-1,2,4-thiadiazinyl-4)methane]
- cell cycle kinetics and distribution (NIH-3T3; 3T3, 24-hour exposure): significantly reduced the percentage of cells in both the S- and G2/M-phases
- effect on cell cycle distribution (NIH-3T3; NIH-3T3, 48 h exposure): increased the percentage of cells in S-phase, decreased the percentage of cells in G0/G1; also recorded: decreased the percentage of cells in G0/G1 and increased the percentage of cells in S
- DNA debris in the sub-G0/G1 region (NIH-3T3; NIH-3T3, 48 h exposure, 25-100 μM): did not increase DNA debris; also recorded: did not significantly affect the appearance of DNA debris
- effect on cell cycle distribution (SKOV-3): reduced the percentage of cells in the G0/G1-phase and increased the percentage of cells in both S and G2/M; also recorded: concentration-dependent decrease in the percentage of cells in G0/G1 but increased the percentage of cells in both the S-phase and G2/M
- DNA debris in the sub-G0/G1 region (SKOV-3; 25-100 μM): significantly increased DNA debris; also recorded: resulted in the appearance of DNA debris
- increase in Annexin-V binding (Annexin-V positive cells) (PA-1): 4 fold
- PARP cleavage (PARP): induced PARP cleavage; also recorded: resulted in PARP cleavage
- mortality (%) ([1]; 10 mg/mouse/inj): 6%
- mortality (%) ([1]; 20 mg/mouse/inj): 13%
- mortality (%) ([1]; 25 mg/mouse/inj): 47%
- mortality (%) ([1]; 30 mg/mouse/inj): 100%
- tolerability ([1]; daily doses below 15 mg/mouse (˜650 mg/kg), 3 d i.p. bolus regimen): well-tolerated
- cytotoxic effect against the growth of established tumor cells [2]: significant cytotoxic effect
- DNA fragmentation (3T3 cells; 3T3, 24-hour exposure): not observed
- DNA fragmentation by agarose-gel electrophoresis (3T3 cells; 3T3 cells, identical regimen (50 μM)): not apparent
- apoptotic signalling events after exposure [3]: activation of caspases 3, 8 and 9
- induction of apoptosis [4]: capable of inducing apoptosis, but with a delayed onset
- cytotoxicity [5]: Significant cytotoxicity
